# “And” between values parts separate entries of the source, which are not always exact repeats. Equal values may be shown once. Read-outs that look alike come from different tables or passages of the source.
# What was measured:
# Akt1 [1] = target: T1, Akt1 (Homo sapiens, UniProt P31749); assay: PhosphoSens continuous fluorometric kinetic enzyme assay
# Procedure: (§1) By addition of either 8 nM Akt1, 2 nM Akt2, or 5 nM Akt3 (final concentrations) the reactions were initiated. […] Afterwards the kobs-values were plotted versus the inhibitor concentrations [I] and then fit to the following hyperbolic Eq.
# Ba/F3^myr-Akt3 cells = assay: CellTiter-Glo cell viability assay; settings: for Log ratio EC50 [Akt] / EC50 [Akt], Akt3 / Akt2: cell viability assay Ba/F3 myr-Akt cells, log units
# Akt2 [2] = target: T2, Akt2 (Homo sapiens, UniProt P31751); assay: PhosphoSens continuous fluorometric kinetic enzyme assay
# Procedure: as §1
# Ba/F3^myr-Akt2 cells = assay: CellTiter-Glo cell viability assay
# Procedure: (§2) On day 0, cells were plated into white 384-well cell culture plates (Greiner Bio-One) using a Multidrop reagent dispenser (Thermo Fisher Scientific) at cell numbers that ensure linear and optimal luminescent signal intensity (Ba/F3myr-Akt1: 600 cells/well, Ba/F3myr-Akt2: 800 cells/well, Ba/F3myr-Akt3: 800 cells/well). […] Cell viability was analyzed on day 4 using the CellTiter-Glo Assay (Promega) as per the manufacturer’s instructions. […] All experimental points were measured in duplicates for each plate and were replicated in at least three plates.
# Ba/F3^myr-Akt1 cells = assay: CellTiter-Glo cell viability assay; settings: for Log ratio EC50 [Akt] / EC50 [Akt], Akt1 / Akt2: cell viability assay Ba/F3 myr-Akt cells, log units
# Procedure: as §2
# Akt1 [3] = target: T1, Akt1; assay: STK HTRF KinEASE activity-based assay (IC50); settings: for Log ratio IC50 [Akt] / IC50 [Akt], Akt1 / Akt2: biochemical activity based assay, log units
# parental Ba/F3 cells = assay: CellTiter-Glo cell viability assay; type: cell-based, murine
# Procedure: as §2
# Akt2 [4] = target: T2, Akt2; assay: STK HTRF KinEASE activity-based assay (IC50)
# Procedure: The biochemical half maximal inhibitory concentrations (IC50) were determined with the STK HTRF KinEASE assay (Cisbio) according to the manufactor’s instructions. Briefly: 5 µL Kinase solution and 2.5 µL inhibitor solution (8% DMSO in HTRF buffer) were incubated for 1 h before the reaction was started by addition of 2.5 µL starting solution containing ATP and substrate peptide. […] After reaction completion (Akt1: 60 min, Akt2: 20 min, Akt3: 15 min), 10 µL of stop solution were added. […] The quotient of both intensities were recorded at eight different inhibitor concentrations and data fit to a Hill 4-parameter equation with Quattro software suite (Quattro Research GmbH, Martinsried, Germany). Each reaction was performed in duplicates and at least three independent determinations of each IC50 were made.
# Akt3 = Akt3 (Homo sapiens, UniProt Q9Y243); assay: STK HTRF KinEASE activity-based assay (IC50)
# [5] = Mus musculus, read-out: CTG BaF3myr-Akt3, Mean, mean of replicates
# [6] = Mus musculus, read-out: CTG BaF3myr-Akt3, individual determinations, single replicates
# [7] = read-out: CTG BaF3myr-Akt3, individual determinations, single replicates
# [8] = Ki Akt2, Mean, mean of replicates
# [9] = Ki Akt2, individual determinations, single replicates
# [10] = read-out: kinact /Ki Akt2, Mean, mean of replicates
# [11] = read-out: kinact /Ki Akt2, individual determinations, single replicates
# [12] = read-out: kinact Akt2, individual determinations, single replicates
# [13] = Mus musculus, read-out: CTG BaF3myr-Akt2, Mean, mean of replicates
# [14] = Mus musculus, read-out: CTG BaF3myr-Akt2, individual determinations, single replicates
# [15] = read-out: CTG BaF3myr-Akt2, individual determinations, single replicates
# [16] = read-out: CTG BaF3myr-Akt1, individual determinations, single replicates
# [17] = HTRF IC50 Akt1, individual determinations, single replicates
# [18] = IC50 Akt1, HTRF, ATP at KM, 1 h preincubation
# [19] = Mus musculus, BaF3, CTG, parental BaF3 cell line, read-out: EC50 BaF3
# [20] = Mus musculus, BaF3, parental cells, mean of replicates, read-out: CTG BaF3, Mean
# [21] = Mus musculus, BaF3, parental cells, single replicates, read-out: CTG BaF3, individual determinations
# [22] = parental cells, single replicates, read-out: CTG BaF3, individual determinations
# [23] = HTRF IC50 Akt2, Mean, mean of replicates
# [24] = HTRF IC50 Akt2, individual determinations, single replicates
# [25] = IC50 Akt2, HTRF, ATP at KM, 1 h preincubation
# [26] = HTRF IC50 Akt3, Mean, mean of replicates
# [27] = HTRF IC50 Akt3, individual determinations, single replicates
# [28] = IC50 Akt3, HTRF, ATP at KM, 1 h preincubation
# [29] = Mus musculus, read-out: CTG BaF3myr-Akt1, Mean, mean of replicates
# [30] = HTRF IC50 Akt1, Mean, mean of replicates
# Akt3, sequence (Q9Y243 whole entry): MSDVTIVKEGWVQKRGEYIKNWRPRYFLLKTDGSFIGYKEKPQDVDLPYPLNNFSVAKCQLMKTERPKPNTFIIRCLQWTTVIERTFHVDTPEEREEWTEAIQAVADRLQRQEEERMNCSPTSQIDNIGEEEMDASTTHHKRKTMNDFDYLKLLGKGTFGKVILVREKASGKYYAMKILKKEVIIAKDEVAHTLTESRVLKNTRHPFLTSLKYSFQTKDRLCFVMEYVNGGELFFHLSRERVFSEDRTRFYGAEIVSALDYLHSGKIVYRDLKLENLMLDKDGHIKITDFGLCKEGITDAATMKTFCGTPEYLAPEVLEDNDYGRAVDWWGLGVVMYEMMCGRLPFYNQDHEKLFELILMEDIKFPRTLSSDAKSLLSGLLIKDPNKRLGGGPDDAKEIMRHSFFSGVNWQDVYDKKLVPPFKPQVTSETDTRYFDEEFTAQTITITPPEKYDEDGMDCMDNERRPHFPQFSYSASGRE
# T2 sequence (P31751 whole entry): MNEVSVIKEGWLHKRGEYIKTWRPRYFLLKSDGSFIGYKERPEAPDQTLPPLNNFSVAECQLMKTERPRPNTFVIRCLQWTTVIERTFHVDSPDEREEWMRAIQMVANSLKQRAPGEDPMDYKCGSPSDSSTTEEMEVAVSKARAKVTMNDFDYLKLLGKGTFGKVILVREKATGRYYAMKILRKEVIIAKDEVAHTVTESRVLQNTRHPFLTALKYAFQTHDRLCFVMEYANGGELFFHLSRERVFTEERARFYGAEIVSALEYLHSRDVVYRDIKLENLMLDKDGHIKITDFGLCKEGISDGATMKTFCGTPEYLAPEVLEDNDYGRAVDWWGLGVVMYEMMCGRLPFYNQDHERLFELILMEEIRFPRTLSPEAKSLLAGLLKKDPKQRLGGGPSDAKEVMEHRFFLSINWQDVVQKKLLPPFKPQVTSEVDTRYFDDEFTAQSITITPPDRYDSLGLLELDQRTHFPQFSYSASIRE
# T1 sequence (P31749 whole entry): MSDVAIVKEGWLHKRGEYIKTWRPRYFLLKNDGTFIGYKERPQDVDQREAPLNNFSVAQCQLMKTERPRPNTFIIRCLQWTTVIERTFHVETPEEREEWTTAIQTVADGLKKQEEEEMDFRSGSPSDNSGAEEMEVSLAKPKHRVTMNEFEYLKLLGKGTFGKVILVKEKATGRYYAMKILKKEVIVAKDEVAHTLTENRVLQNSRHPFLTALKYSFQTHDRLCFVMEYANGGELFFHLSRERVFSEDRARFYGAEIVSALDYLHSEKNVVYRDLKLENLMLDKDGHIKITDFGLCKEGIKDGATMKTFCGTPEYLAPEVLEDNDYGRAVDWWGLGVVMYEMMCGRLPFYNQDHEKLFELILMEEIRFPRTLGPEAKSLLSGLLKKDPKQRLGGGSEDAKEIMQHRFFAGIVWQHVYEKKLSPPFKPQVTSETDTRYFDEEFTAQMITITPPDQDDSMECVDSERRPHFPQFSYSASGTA
smiles,measurement,setting,value
C=CC(=O)Nc1ccc2[nH]c(=O)n(C3CCN(Cc4ccc(-c5ncc(Cn6ccnc6)cc5-c5ccccc5)cc4)CC3)c2c1 [compound 11],Ki,Akt1 [1]; Ki Akt1,9 ± 2 nM
same,kinact/KI,Akt1 [1]; read-out: kinact /Ki Akt1,26000 ± 2000 M⁻¹ s⁻¹
same,kinact,Akt1 [1]; read-out: kinact Akt1,0.0002 s⁻¹
same,EC50,Ba/F3^myr-Akt3 cells; [5],18600 nM
same,EC50,Ba/F3^myr-Akt3 cells; [6],18300 nM
same,"Log ratio EC50 [Akt] / EC50 [Akt], Akt3 / Akt2",Ba/F3^myr-Akt3 cells,-0.84
same,EC50,Ba/F3^myr-Akt3 cells; [7],13700 nM and 17700 nM and 24600 nM
same,Ki,Akt2 [2]; Ki Akt2,11 ± 1 nM
same,Ki,Akt2 [2]; [8],10.2 nM
same,Ki,Akt2 [2]; [9],8.9 nM and 11.3 nM and 10.3 nM
same,kinact/KI,Akt2 [2]; read-out: kinact /Ki Akt2,20000 ± 4000 M⁻¹ s⁻¹
same,kinact/KI,Akt2 [2]; [10],20000 M⁻¹ s⁻¹
same,kinact/KI,Akt2 [2]; [11],25000 M⁻¹ s⁻¹
same,kinact,Akt2 [2]; read-out: kinact Akt2,0.0002 s⁻¹
same,kinact,Akt2 [2]; [12],0.000217 s⁻¹
same,"kinact Akt2, individual determinations",Akt2 [2]; single replicates,0.013 min⁻¹ and 0.009 min⁻¹
same,EC50,Ba/F3^myr-Akt2 cells; [13],2690 nM
same,EC50,Ba/F3^myr-Akt2 cells; [14],3180 nM
same,EC50,Ba/F3^myr-Akt2 cells; [15],2510 nM and 2370 nM
same,EC50,"Ba/F3^myr-Akt1 cells; Mus musculus, read-out: CTG BaF3myr-Akt1, individual determinations, single replicates",28200 nM
same,"Log ratio EC50 [Akt] / EC50 [Akt], Akt1 / Akt2",Ba/F3^myr-Akt1 cells,1.03
same,EC50,Ba/F3^myr-Akt1 cells; [16],27.1 µM and > 30 µM (2×)
same,IC50,Akt1 [3]; [17],778 nM and 571 nM and 580 nM
same,IC50,Akt1 [3]; [18],643 ± 95 nM
same,"Log ratio IC50 [Akt] / IC50 [Akt], Akt1 / Akt2",Akt1 [3],0.93
same,EC50,parental Ba/F3 cells; [19],> 30000 nM
same,EC50,parental Ba/F3 cells; [20],> 30000 nM
same,EC50,parental Ba/F3 cells; [21],> 30000 nM
same,EC50,parental Ba/F3 cells; [22],> 30000 nM
same,IC50,Akt2 [4]; [23],76.1 nM
same,IC50,Akt2 [4]; [24],78.2 nM and 61.8 nM and 88.3 nM
same,IC50,Akt2 [4]; [25],76 ± 11 nM
same,IC50,Akt3; [26],1890 nM
same,IC50,Akt3; [27],1360 nM and 1740 nM and 2570 nM
same,IC50,Akt3; [28],1890 ± 621 nM
C=CC(=O)Nc1ccc2[nH]c(=O)n(C3CCN(Cc4ccc(-c5ncc(C(=O)Nc6cccc(N)c6)cc5-c5ccccc5)cc4)CC3)c2c1 [compound 18],Ki,Akt1 [1]; Ki Akt1,6 ± 1 nM
same,Ki,"Akt1 [1]; Ki Akt1, Mean, mean of replicates",6.62 nM
same,Ki,"Akt1 [1]; Ki Akt1, individual determinations, single replicates",4.2 nM and 7.8 nM and 7.9 nM
same,kinact/KI,Akt1 [1]; read-out: kinact /Ki Akt1,32000 ± 5000 M⁻¹ s⁻¹
same,kinact/KI,"Akt1 [1]; read-out: kinact /Ki Akt1, Mean, mean of replicates",44000 M⁻¹ s⁻¹
same,kinact,Akt1 [1]; read-out: kinact Akt1,0.000167 s⁻¹
same,kinact,"Akt1 [1]; read-out: kinact Akt1, Mean, mean of replicates",0.000267 s⁻¹
same,kinact,"Akt1 [1]; read-out: kinact Akt1, individual determinations, single replicates",0.000267 s⁻¹
same,"kinact Akt1, individual determinations",Akt1 [1]; single replicates,0.014 min⁻¹ and 0.018 min⁻¹
same,EC50,Ba/F3^myr-Akt3 cells; [5],18200 nM
same,"Log ratio EC50 [Akt] / EC50 [Akt], Akt3 / Akt2",Ba/F3^myr-Akt3 cells,-1.09
same,EC50,Ba/F3^myr-Akt3 cells; [7],10300 nM and 26000 nM and 21500 nM
same,Ki,Akt2 [2]; Ki Akt2,11 ± 2 nM
same,Ki,Akt2 [2]; [8],11.3 nM
same,Ki,Akt2 [2]; [9],10.1 nM and 10.2 nM and 13.6 nM
same,kinact/KI,Akt2 [2]; read-out: kinact /Ki Akt2,15000 ± 1000 M⁻¹ s⁻¹
same,kinact/KI,Akt2 [2]; [10],15000 M⁻¹ s⁻¹
same,kinact/KI,Akt2 [2]; [11],15000 M⁻¹ s⁻¹
same,kinact,Akt2 [2]; read-out: kinact Akt2,0.000167 s⁻¹
same,kinact,Akt2 [2]; [12],0.00015 s⁻¹
same,"kinact Akt2, individual determinations",Akt2 [2]; single replicates,0.009 min⁻¹ and 0.013 min⁻¹
same,EC50,Ba/F3^myr-Akt2 cells; [13],1480 nM
same,EC50,Ba/F3^myr-Akt2 cells; [15],1640 nM and 2110 nM and 691 nM
same,EC50,Ba/F3^myr-Akt1 cells; [29],17800 nM
same,"Log ratio EC50 [Akt] / EC50 [Akt], Akt1 / Akt2",Ba/F3^myr-Akt1 cells,1.08
same,EC50,Ba/F3^myr-Akt1 cells; [16],14100 nM and 13100 nM and 26300 nM
same,IC50,Akt1 [3]; [30],90.6 nM
same,IC50,Akt1 [3]; [17],106 nM and 73.7 nM and 92.3 nM
same,IC50,Akt1 [3]; [18],91 ± 13 nM
same,"Log ratio IC50 [Akt] / IC50 [Akt], Akt1 / Akt2",Akt1 [3],0.37
same,EC50,parental Ba/F3 cells; [19],> 30000 nM
same,EC50,parental Ba/F3 cells; [20],> 30000 nM
same,EC50,parental Ba/F3 cells; [21],> 30000 nM
same,EC50,parental Ba/F3 cells; [22],> 30000 nM
same,IC50,Akt2 [4]; [23],38.4 nM
same,IC50,Akt2 [4]; [24],36.7 nM and 47.9 nM and 40 nM
same,IC50,Akt2 [4]; [25],39 ± 6 nM
same,IC50,Akt3; [26],5270 nM
same,IC50,Akt3; [27],3820 nM and 6130 nM and 5850 nM
same,IC50,Akt3; [28],5270 ± 1030 nM
C=CC(=O)Nc1ccc2[nH]c(=O)n(C3CCN(Cc4ccc(-c5ncc(Cc6ccc(N)cc6)cc5-c5ccccc5)cc4)CC3)c2c1 [compound 19],EC50,Ba/F3^myr-Akt3 cells; [5],7440 nM
same,EC50,Ba/F3^myr-Akt3 cells; [6],6600 nM
same,"Log ratio EC50 [Akt] / EC50 [Akt], Akt3 / Akt2",Ba/F3^myr-Akt3 cells,-0.41
same,EC50,Ba/F3^myr-Akt3 cells; [7],7030 nM and 8070 nM
same,EC50,Ba/F3^myr-Akt2 cells; [13],2890 nM
same,EC50,Ba/F3^myr-Akt2 cells; [14],2190 nM
same,EC50,Ba/F3^myr-Akt2 cells; [15],3830 nM and 2660 nM
same,EC50,Ba/F3^myr-Akt1 cells; [29],12700 nM
same,"Log ratio EC50 [Akt] / EC50 [Akt], Akt1 / Akt2",Ba/F3^myr-Akt1 cells,0.64
same,EC50,Ba/F3^myr-Akt1 cells; [16],19700 nM and 8660 nM and 9890 nM
same,IC50,Akt1 [3]; [30],1800 nM
same,IC50,Akt1 [3]; [17],1900 nM and 1840 nM and 1650 nM
same,IC50,Akt1 [3]; [18],1800 ± 105 nM
same,"Log ratio IC50 [Akt] / IC50 [Akt], Akt1 / Akt2",Akt1 [3],0.55
same,EC50,parental Ba/F3 cells; [20],12500 nM
same,EC50,parental Ba/F3 cells; [22],6980 nM and 7490 nM and 18800 nM
same,IC50,Akt2 [4]; [23],511 nM
same,IC50,Akt2 [4]; [24],523 nM and 430 nM and 581 nM
same,IC50,Akt2 [4]; [25],511 ± 62 nM
same,loss of potency of the anilinic CAAI,"Akt3; Akt3, biochemical IC50",10 fold
same,IC50,Akt3; [26],1510 nM
same,IC50,Akt3; [27],2030 nM and 1410 nM and 1090 nM
same,IC50,Akt3; [28],1510 ± 389 nM

# Source: article PMC8421423, “Cellular model system to dissect the isoform-selectivity of Akt inhibitors” (Nature Communications, 2021)
